From ChEMBL document CHEMBL1133695, “A three-dimensional model of lanosterol 14alpha-demethylase of Candida albicans and its interaction with azole antifungals” (J Med Chem, 2000)

What follows are molecules tested on Candida albicans (assay: Concentration required to reduce the growth of Candida albicans to 50% of that in the control).
Type: functional, organism-based
COc1cc(C(F)(F)F)ccc1C(O)(Cn1cncn1)Cn1cncn1 gave an IC50 of 28.5 µM.
OC(Cn1cncn1)(Cn1cncn1)c1ccccc1C(F)(F)F showed an IC50 of 103 µM.
OC(Cn1cncn1)(Cn1cncn1)c1ccc(-c2ccc(Cl)cc2)cc1 gave an IC50 of 7.19 µM.
OC(Cn1cncn1)(Cn1cncn1)c1ccc(C(F)(F)F)cc1 showed an IC50 of 3.25 µM.
With Cc1cc(F)ccc1C(O)(Cn1cncn1)Cn1cncn1 the IC50 was 101 µM.
OC(Cn1cncn1)(Cn1cncn1)c1ccc(Oc2ccc(Cl)cc2)cc1 showed an IC50 of 6.94 µM.
With OC(Cn1cncn1)(Cn1cncn1)c1ccc(F)cc1F [FLUCONAZOLE] the IC50 was 1.97 µM.
